# Several values for one entry are separate records, joined by “and”; a condition that tells them apart may be missing. Equal entries are not always repeated. Inconclusive results and toxic doses are left out.
# Test system: BDF1 mice, B16 melanoma ip, median survival T/C
# Assay: NCI In Vivo Anticancer Drug Screen. Data for tumor model B16 Melanoma (intraperitoneal) in B6D2F1 (BDF1) mice
# Conditions: endpoint: median survival time, higher = longer survival
# Summary of the method: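 The ratio T/C compares compound-treated mice with vehicle-treated controls, using survival or tumor size as the endpoint in a transplantable tumor model.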
# [1] = dose: 25.0 mg/kg/injection, schedule: Q01DX009 (ip), vehicle: saline
# [2] = dose: 50.0 mg/kg/injection, schedule: Q01DX009 (ip), vehicle: saline
# [3] = dose: 100.0 mg/kg/injection, schedule: Q01DX009 (ip), vehicle: saline
# [4] = dose: 200.0 mg/kg/injection, schedule: Q01DX009 (ip), vehicle: saline
# [5] = dose: 6.25 mg/kg/injection, schedule: Q01DX009 (ip), vehicle: saline
# [6] = dose: 12.5 mg/kg/injection, schedule: Q01DX009 (ip), vehicle: saline with Tween-80
# [7] = dose: 25.0 mg/kg/injection, schedule: Q01DX009 (ip), vehicle: saline with Tween-80
# [8] = dose: 100.0 mg/kg/injection, schedule: Q01DX009 (ip), vehicle: Klucel (hydroxypropylcellulose) (HPC)
# [9] = dose: 25.0 mg/kg/injection, schedule: Q01DX009 (ip), vehicle: Klucel (hydroxypropylcellulose) (HPC)
# [10] = dose: 50.0 mg/kg/injection, schedule: Q01DX009 (ip), vehicle: Klucel (hydroxypropylcellulose) (HPC)
# [11] = dose: 0.31 mg/kg/injection, schedule: Q01DX009 (ip), vehicle: saline
# [12] = dose: 1.25 mg/kg/injection, schedule: Q01DX009 (ip), vehicle: saline
# [13] = dose: 3.12 mg/kg/injection, schedule: Q01DX009 (ip), vehicle: saline
# [14] = dose: 12.5 mg/kg/injection, schedule: Q01DX009 (ip), vehicle: saline
smiles,measurement,setting,value
NC(Cc1cc(I)c(O)c(I)c1)C(=O)O (stereo unspecified),T/C,[1],106 % of control
same,T/C,[2],112 % of control
same,T/C,"dose: 100.0 mg/kg/injection, schedule: Q01DX009 (ip), vehicle: carboxymethylcellulose (CMC)",108 % of control
same,T/C,[3],116 % of control
same,T/C,"dose: 200.0 mg/kg/injection, schedule: Q01DX009 (ip), vehicle: carboxymethylcellulose (CMC)",115 % of control
same,T/C,[4],110 % of control
same,T/C,"dose: 400.0 mg/kg/injection, schedule: Q01DX009 (ip), vehicle: saline",100 % of control
CCC[CH2][Sn](=[S])[CH2]CCC,T/C,"dose: 0.78 mg/kg/injection, schedule: Q01DX009 (ip), vehicle: saline",98 % of control
same,T/C,"dose: 1.56 mg/kg/injection, schedule: Q01DX009 (ip), vehicle: saline",102 % of control
same,T/C,"dose: 6.25 mg/kg/injection, schedule: Q01DX009 (ip), vehicle: other",97 % of control
same,T/C,"dose: 6.25 mg/kg/injection, schedule: Q01DX009 (ip), vehicle: saline with Tween-80",109 % of control
same,T/C,[5],107 % of control
same,T/C,"dose: 6.25 mg/kg/injection, schedule: Q04DX003 (ip), vehicle: other",105 % of control
Cc1c2ccccc2c(C)c2c1ccc1ccccc12,T/C,"dose: 2.0 mg/kg/injection, schedule: Q01DX009 (ip), vehicle: saline with Tween-80",100 % of control
same,T/C,"dose: 4.0 mg/kg/injection, schedule: Q01DX009 (ip), vehicle: saline with Tween-80",108 % of control
same,T/C,"dose: 16.0 mg/kg/injection, schedule: Q01DX009 (ip), vehicle: saline with Tween-80",108 % of control
CCc1ccc(NC(=O)C(c2ccccc2)c2ccccc2)cc1,T/C,[6],89 % of control
same,T/C,[7],86 % of control
COc1ccc2c(c1)C(OC)C1c3c(cc4c(c3-2)OCO4)CCN1C (stereo unspecified),T/C,"dose: 1.0 mg/kg/injection, schedule: Q01DX009 (ip), vehicle: acid diluted with saline",123 % of control
same,T/C,"dose: 2.0 mg/kg/injection, schedule: Q01DX009 (ip), vehicle: acid diluted with saline",89 % of control
Nc1nc2nc[nH]c2c(=O)[nH]1,T/C,"dose: 25.0 mg/kg/injection, schedule: Q01DX009 (ip), vehicle: suspension in saline",95 % of control
same,T/C,"dose: 50.0 mg/kg/injection, schedule: Q01DX009 (ip), vehicle: suspension in saline",97 % of control
same,T/C,"dose: 100.0 mg/kg/injection, schedule: Q01DX009 (ip), vehicle: suspension in saline",88 % of control
same,T/C,"dose: 200.0 mg/kg/injection, schedule: Q01DX009 (ip), vehicle: suspension in saline",86 % of control
O=C(Nc1ccccc1C(F)(F)F)Nc1cccc2ccccc12,T/C,[8],91 % of control
same,T/C,"dose: 200.0 mg/kg/injection, schedule: Q01DX009 (ip), vehicle: Klucel (hydroxypropylcellulose) (HPC)",94 % of control
Cn1c2ccccc2c(=O)c2ccc(Cl)cc21,T/C,[9],97 % of control
same,T/C,[10],97 % of control
same,T/C,[8],91 % of control
NC(=O)c1[nH]nc(C2OC(CO)C(O)C2O)c1O (stereo unspecified),T/C,"dose: 0.08 mg/kg/injection, schedule: Q01DX009 (ip), vehicle: saline",100 % of control
same,T/C,"dose: 0.12 mg/kg/injection, schedule: Q01DX009 (ip), vehicle: saline",110 % of control
same,T/C,"dose: 0.16 mg/kg/injection, schedule: Q01DX009 (ip), vehicle: saline",111 % of control
same,T/C,[11],111 % of control
same,T/C,"dose: 0.5 mg/kg/injection, schedule: Q01DX009 (ip), vehicle: saline",115 % of control
same,T/C,"dose: 0.62 mg/kg/injection, schedule: Q01DX009 (ip), vehicle: saline",111 % of control
same,T/C,"dose: 0.67 mg/kg/injection, schedule: Q01DX009 (ip), vehicle: saline",123 % of control
same,T/C,[12],94 % of control
same,T/C,"dose: 2.16 mg/kg/injection, schedule: Q01DX004 (ip), vehicle: saline",113 % of control
same,T/C,"dose: 3.6 mg/kg/injection, schedule: Q01DX004 (ip), vehicle: saline",112 % of control
same,T/C,"dose: 6.0 mg/kg/injection, schedule: Q01DX004 (ip), vehicle: saline",109 % of control
same,T/C,"dose: 10.0 mg/kg/injection, schedule: Q01DX004 (ip), vehicle: saline",44 % of control
CC(C(=O)N1c2ccccc2Sc2ccccc21)[N+]1(C)CCCC1 (stereo unspecified),T/C,[13],93 % of control
same,T/C,[5],93 % of control
same,T/C,[14],95 % of control
same,T/C,[1],91 % of control
same,T/C,[2],100 % of control
O=[N+]([O-])c1cc([N+](=O)[O-])c(Nn2c3ccccc3c3ccccc32)c([N+](=O)[O-])c1,T/C,[6],86 % of control
same,T/C,[7],88 % of control
same,T/C,"dose: 50.0 mg/kg/injection, schedule: Q01DX009 (ip), vehicle: saline with Tween-80",93 % of control
CN(C)CCC1(c2ccccc2)C=Cc2ccccc21 (stereo unspecified),T/C,[13],108 % of control
same,T/C,[5],102 % of control
same,T/C,[14],108 % of control
same,T/C,[1],95 % of control
CS(=O)(=O)ON1C(=O)c2ccccc2C1=O,T/C,"dose: 1.56 mg/kg/injection, schedule: Q01DX009 (ip), vehicle: Klucel (hydroxypropylcellulose) (HPC)",100 % of control
same,T/C,"dose: 3.12 mg/kg/injection, schedule: Q01DX009 (ip), vehicle: Klucel (hydroxypropylcellulose) (HPC)",98 % of control
same,T/C,"dose: 6.25 mg/kg/injection, schedule: Q01DX009 (ip), vehicle: Klucel (hydroxypropylcellulose) (HPC)",94 % of control
Nc1ccn(C2OC(CO)C(O)C2O)c(=O)n1 (stereo unspecified),T/C,[5],120 % of control
same,T/C,[1],98 % of control
same,T/C,"dose: 80.0 mg/kg/injection, schedule: Q01DX009 (ip), vehicle: saline",71 % of control
same,T/C,[3],97 % of control
same,T/C,"dose: 100.0 mg/kg/injection, schedule: Q04DX003 (ip), vehicle: saline with Tween-80",100 % of control
same,T/C,[4],94 % of control
same,T/C,"dose: 200.0 mg/kg/injection, schedule: Q04DX003 (ip), vehicle: saline with Tween-80",92 % of control
same,T/C,"dose: 250.0 mg/kg/injection, schedule: Q04DX009 (ip), vehicle: saline",100 % of control
same,T/C,"dose: 400.0 mg/kg/injection, schedule: Q04DX003 (ip), vehicle: saline with Tween-80",92 % of control
c1ccc([C@H]2CN3CCSC3=N2)cc1,T/C,"dose: 0.15 mg/kg/injection, schedule: Q01DX009 (ip), vehicle: saline",97 % of control
same,T/C,[11],89 % of control and 102 % of control
same,T/C,"dose: 0.63 mg/kg/injection, schedule: Q01DX009 (ip), vehicle: saline",102 % of control
same,T/C,[12],102 % of control
same,T/C,"dose: 2.5 mg/kg/injection, schedule: Q01DX009 (ip), vehicle: saline",103 % of control
same,T/C,"dose: 5.0 mg/kg/injection, schedule: Q01DX009 (ip), vehicle: saline",89 % of control
same,T/C,"dose: 10.0 mg/kg/injection, schedule: Q01DX009 (ip), vehicle: saline",89 % of control
same,T/C,"dose: 20.0 mg/kg/injection, schedule: Q01DX009 (ip), vehicle: saline",107 % of control
same,T/C,"dose: 40.0 mg/kg/injection, schedule: Q01DX009 (ip), vehicle: saline",86 % of control
NC(=O)c1ncn2c(=O)n(CCCl)nnc12,T/C,[5],158 % of control
same,T/C,[14],216 % of control
same,T/C,[1],207 % of control
same,T/C,[2],96 % of control
O=C(Nc1cccc(C(F)(F)F)c1)c1cccc(C(=O)Nc2cccc(C(F)(F)F)c2)c1,T/C,"dose: 12.5 mg/kg/injection, schedule: Q01DX009 (ip), vehicle: Klucel (hydroxypropylcellulose) (HPC)",101 % of control
same,T/C,[9],106 % of control
same,T/C,[10],108 % of control

# — PubChem BioAssay AID192 (DTP/NCI, 2004)
